According to patent US20240158446A1, “CYCLIC COMPOUND HAVING SELECTIVE INHIBITORY ACTION ON KRAS OVER HRAS AND NRAS” (CHUGAI SEIYAKU KABUSHIKI KAISHA, priority 2021, published 2024):
Where two headings read alike, the source gives them in different places. Where a SMILES comes first, the peptide text is derived from it. Bridges are numbered along the chain shown (N, C = ends). [ ]: non-standard residue; d: D form. hPhe(3,5-F2-4-CF3) = N[C@@H](CCc1cc(F)c(C(F)(F)F)c(F)c1)C(=O)O; NPrPhe(4-CF3) = CCCN[C@@H](Cc1ccc(C(F)(F)F)cc1)C(=O)O; NMeGly(cPent) = CN[C@H](C(=O)O)C1CCCC1; NMeD = CN[C@@H](CC(=O)O)C(=O)O; NMeL = CN[C@@H](CC(C)C)C(=O)O; Ac5c = NC1(C(=O)O)CCCC1; Sar = CNCC(=O)O

Legend:
[1] = molecular target: GDP-bound NRAS wild-type protein (Homo sapiens, UniProt P01111); assay: Binding to NRAS by surface plasmon resonance (SPR), Single Cycle Kinetics; details: SPR, GDP-bound NRAS wild-type protein vs GDP-bound KRAS wild-type protein
[2] = molecular target: GDP-bound KRAS wild-type protein (Homo sapiens, UniProt P01116); assay: Binding to KRAS by surface plasmon resonance (SPR), Single Cycle Kinetics; details: GDP-bound KRAS wild-type protein, read-out: KRAS KD
[3] = molecular target: GDP-bound HRAS wild-type protein (Homo sapiens, UniProt P01112); assay: Binding to HRAS by surface plasmon resonance (SPR), Single Cycle Kinetics; details: SPR, GDP-bound HRAS wild-type protein vs GDP-bound KRAS wild-type protein
GDP-bound HRAS wild-type protein, sequence (P01112 whole entry): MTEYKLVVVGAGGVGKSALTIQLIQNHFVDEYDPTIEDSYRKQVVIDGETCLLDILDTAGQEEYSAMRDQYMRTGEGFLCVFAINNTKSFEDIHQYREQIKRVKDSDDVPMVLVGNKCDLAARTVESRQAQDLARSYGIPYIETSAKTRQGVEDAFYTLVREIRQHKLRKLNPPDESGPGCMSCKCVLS

GDP-bound NRAS wild-type protein, sequence (P01111 whole entry): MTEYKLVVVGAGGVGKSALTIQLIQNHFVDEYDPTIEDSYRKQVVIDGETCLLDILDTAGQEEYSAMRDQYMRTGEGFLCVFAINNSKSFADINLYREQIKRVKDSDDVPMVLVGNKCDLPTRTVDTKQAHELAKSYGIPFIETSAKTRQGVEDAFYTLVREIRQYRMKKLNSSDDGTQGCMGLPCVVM
GDP-bound KRAS wild-type protein, sequence (P01116 whole entry): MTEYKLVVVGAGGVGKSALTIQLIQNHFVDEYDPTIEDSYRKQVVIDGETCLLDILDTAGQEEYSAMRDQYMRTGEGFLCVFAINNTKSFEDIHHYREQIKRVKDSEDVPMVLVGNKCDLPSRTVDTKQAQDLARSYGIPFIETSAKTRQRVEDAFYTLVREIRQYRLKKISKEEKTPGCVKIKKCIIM

SMILES | Kd ([2]; SPR, Single Cycle Kinetics) | Kd ([2]; SPR Single Cycle Kinetics, 1:1 binding model) | NRAS/KRAS (ratio of KD value for NRAS to KD value for KRAS) [1] | HRAS/KRAS (ratio of KD value for HRAS to KD value for KRAS) [3] | NRAS/KRAS (ratio of KD value with respect to NRAS to KD value with respect to KRAS) [1] | HRAS/KRAS (ratio of KD value with respect to HRAS to KD value with respect to KRAS) [3]
CCCN1C(=O)CN(C)C(=O)CN(C)C(=O)[C@H]([C@@H](C)CC)NC(=O)[C@H](CC(C)C)N(C)C(=O)C[C@@H](C(=O)N(C)C)N(C)C(=O)[C@H](C2CCCC2)N(C)C(=O)C2(CCCC2)NC(=O)[C@@H]2CCCN2C(=O)[C@H](CCc2cc(F)c(C(F)(F)F)c(F)c2)NC(=O)CN(C)C(=O)[C@@H]1Cc1ccc(C(F)(F)F)cc1 [PP0788] ([NMeL]I[Sar][Sar][NPrPhe(4-CF3)][Sar][hPhe(3,5-F2-4-CF3)]P[Ac5c][NMeGly(cPent)][NMeD]-NMe2; lactam N-11) | – | 0.054 nM | – | – | B (a compound having 3 or more and less than 10 is denoted as B) | C (A compound having a KD ratio of 0.1 or more and less than 3 is denoted as C)
CCO[C@@H]1C[C@H]2C(=O)NC3(CCC3)C(=O)N(C)[C@@H](C(CC)CC)C(=O)N(C)[C@H](C(=O)N3CCCC3)CC(=O)N(C)[C@H]3CCCC/C=C/c4ccc(cc4)C[C@@H](C(=O)N(C)CC(=O)N[C@@H](CCc4ccc(Cl)c(Cl)c4)C(=O)N2C1)N1CC/C=C\C[C@@H](C1=O)N(C)C(=O)CN(C)C(=O)[C@H]([C@@H](C)CC)NC3=O [PP3047, (1S,7S,11R,13S,19S,22S,26S,29S,35S,37Z,47E)-7-[2-(3,4-dichlorophenyl)ethyl]-11-ethoxy-19-(1-ethylpropyl)-3,18,21,25,31,34-hexamethyl-29-[(1S)-1-methylpropyl]-22-(pyrrolidine-1-carbonyl)spiro[3,6,9,15,18,21,25,28,31,34,41-undecazapentacyclo[24.15.11.2^43,46.1^35,41.0^9,13]pentapentaconta-37,43(54),44,46(53),47-pentaene-16,1′-cyclobutane]-2,5,8,14,17,20,24,27,30,33,55-undecone] | 0.18 nM | – | AA (a compound having 20 or more is denoted as AA) | A (a compound having 10 or more and less than 20 is denoted as A) | – | –
CCO[C@@H]1C[C@H]2C(=O)NC3(CCC3)C(=O)N(C)[C@@H](C3CCCC3)C(=O)N(C)[C@H](C(=O)N3CCOCC3)CC(=O)N(C)[C@@H](COC)C(=O)N[C@@H]([C@@H](C)CC)C(=O)NCC(=O)N(C)[C@H]3CCCCCN(C3=O)[C@@H](Cc3ccc(C(F)(F)F)cc3)C(=O)N(C)CC(=O)N[C@@H](CCc3cc(F)c(C(F)(F)F)c(F)c3)C(=O)N2C1 [PP0858] | 0.66 nM | – | B (a compound having 3 or more and less than 10 is denoted as B) | B (a compound having 3 or more and less than 10 is denoted as B) | – | –
CC[C@H](C)[C@@H]1NC(=O)[C@H](CC(C)C)N(C)C(=O)C[C@@H](C(=O)N2CCOCC2)N(C)C(=O)[C@H](C2CCCC2)N(C)C(=O)C2(CCC2)NC(=O)[C@@H]2[C@H](OC)CCN2C(=O)[C@H](CCc2cc(F)c(C(F)(F)F)c(F)c2)NC(=O)CN(C)C(=O)[C@H](Cc2ccc(C(F)(F)F)cc2)N2CCCCC[C@@H](C2=O)N(C)C(=O)CN(C)C1=O [PP1085] | 0.95 nM | – | A (a compound having 10 or more and less than 20 is denoted as A) | A (a compound having 10 or more and less than 20 is denoted as A) | – | –

Continued, in another order:

Kd ([2]; SPR, Single Cycle Kinetics) | Kd ([2]; SPR Single Cycle Kinetics, 1:1 binding model) | SMILES | NRAS/KRAS (ratio of KD value for NRAS to KD value for KRAS) [1] | HRAS/KRAS (ratio of KD value for HRAS to KD value for KRAS) [3] | NRAS/KRAS (ratio of KD value with respect to NRAS to KD value with respect to KRAS) [1] | HRAS/KRAS (ratio of KD value with respect to HRAS to KD value with respect to KRAS) [3]
0.056 nM | – | CCO[C@@H]1C[C@H]2C(=O)NC3(CCC3)C(=O)N(C)[C@@H](C3CCCC3)C(=O)N(C)[C@H](C(=O)N3CCOCC3)CC(=O)N(C)[C@@H](CC)C(=O)N[C@@H]([C@@H](C)CC)C(=O)N(C)CC(=O)N(C)[C@H]3C[C@@H](C)CCN(C3=O)[C@@H](Cc3ccc(C(F)(F)F)cc3)C(=O)N(C)CC(=O)N[C@@H](CCc3cc(F)c(C(F)(F)F)c(F)c3)C(=O)N2C1 [PP1027] | C (A compound having a KD ratio of 0.1 or more and less than 3 is denoted as C) | B (a compound having 3 or more and less than 10 is denoted as B) | – | –
0.056 nM | – | CCO[C@@H]1C[C@H]2C(=O)NC3(CCC3)C(=O)N(C)[C@@H](C3CCCC3)C(=O)N(C)[C@H](C(=O)N(C)C)CC(=O)N(C)[C@@H](CC(F)(F)F)C(=O)N[C@@H]([C@@H](C)CC)C(=O)N(C)CC(=O)N(C)[C@H]3C/C=C\CCN(C3=O)[C@@H](Cc3ccc(C(F)(F)F)cc3)C(=O)N(C)CC(=O)N[C@@H](CCc3cc(F)c(C(F)(F)F)c(F)c3)C(=O)N2C1 [PP1124, (2S,8S,12R,14S,20S,23S,27S,30S,36S,38Z)-20-cyclopentyl-8-[2-[3,5-difluoro-4-(trifluoromethyl)phenyl]ethyl]-12-ethoxy-N,N,4,19,22,26,32,35-octamethyl-30-[(1S)-1-methylpropyl]-3,6,9,15,18,21,25,28,31,34,42-undecaoxo-27-(2,2,2-trifluoroethyl)-2-[[4-(trifluoromethyl)phenyl]methyl]spiro[1,4,7,10,16,19,22,26,29,32,35-undecazatricyclo[34.5.1.0^10,14]dotetracont-38-ene-17,1′-cyclobutane]-23-carboxamide] | A (a compound having 10 or more and less than 20 is denoted as A) | B (a compound having 3 or more and less than 10 is denoted as B) | – | –
